The values below come from patent US20130172346A1, “USE OF KYNURENIC ACID AMIDE DERIVATIVES FOR THE TREATMENT OF HUNTINGTON'S DISEASE” (priority 2010, published 2013).

“Also recorded” adds a separate entry of the source.

The test system of data set [1] is N171-82Q transgenic mice. Description: Survival test in N171-82Q transgenic mouse model of Huntington's disease. In kind it is in vivo. The settings on record: p=0.016. An excerpt:
(§1) The transgenic N171-82Q mice were originally obtained from Jackson Laboratories (Bar Harbor, Me., United States), later we have propagated them in our laboratories by using B6C3F1 background strains. The progeny were genotyped by PCR technique from tail-DNA. The animals were kept in transgenic cages under standard laboratory conditions (up to 5 animals/cage), and had free access to water and food. Male and female transgenic and wild type animals respectively, were equally allotted to the individual test groups. The transgenic animals were injected intraperitoneally (5 ml/kg of body weight) every day at the same time with 2-(2-N,N-dimethylaminoethylamino-1-carbonyl)-1H-quinolin-4-one hydrochloride (at a dose of 100 mg/kg of body weight, dissolved in distilled water, pH was adjusted to 6.5 with 1N NaOH). The control transgenic and wild animals, respectively obtained a salt solution comprising 0.1 M of phosphate buffer (PBS) (5 ml/kg of body weight). The animals were inoculated in the first 5 days of the week starting from the age of 7 weeks.
The transgenic animals were inoculated as disclosed above with 2-(2-N,N-dimethylamino-ethylamino-1-carbonyl)-1H-quinolin-4-one hydrochloride (n=10), and the transgenic animals serving as a control, were inoculated with 0.1 M PBS (n=10) until the animals perished. As negative control wild type animals, treated with 0.1M PBS were used (n=10).
(§2) The statistical analysis of our data was performed by using Statistica software (StatSoft Inc., (2008) STATISTICA version 8.0.; www.statsoft.com). The analysis of the survival data was carried out by Kaplan-Meyer survival curves and Mantel-Cox log rank test. The normality of the data of the open-field test, the body weight measurement and the striatal cell volume measurement was first examined by Shapiro-Wilk W test. […] The significance level was determined at p<0.05. In case of normal distribution an average±S.E.M and in case of non-normal distribution the median and the interquartile range were used in order to depict the data

Data set [2] relates to neurons of the striatum of N171-82Q transgenic mice. Description: Immunohistochemistry with cell volume estimation of striatal neurons. The class given is in vivo, mouse. The settings on record: 100 mg/kg i.p.
Description: as §1
(§3) The body weight of the animals was measured once a week, always at the same day of the week and at the same time of the day, starting from the age of 7 weeks. […]

Data set [3] concerns N171-82Q transgenic mice. Description: Open-field test for examining motor activity (covered distance). In kind it is in vivo, mouse.
Description: as §1
A test method almost identical with the method disclosed for the survival test was used with the exception of the number of animals (n=9, n=8, n=8 corresponding to the above group assignment). The spontaneous motor activity of the mice was tested once a week 2 hours after the given daily inoculation, always at the same day of the week. The animals stayed in the test unit (48×48×40 cm box open from above) for 5 minutes, the motor parameters were registered by the aid of Conducta 1.0 software (Experimetria Ltd., Budapest, Hungary). In order to characterize the motor activity, the parameter of the covered distance was selected and the data of the examined 9 weeks (between the age of 7 and 15 weeks) were evaluated as follows: an average of the first, second, third 3 weeks was calculated for each test group and the three test groups were compared according to the obtained average values.
as §2

Data set [4] relates to N171-82Q transgenic mice. Description: Body weight measurements. In kind it is in vivo, mouse. Conditions: 100 mg/kg i.p., weekly measurement from age of 7 weeks; p=0.00022.
Description: as §1, §3

For data set [5] the following is noted: cited from earlier work.
Data set [6] relates to organic anion transporters. Conditions: mediated by organic anion transporters; cited from earlier work.

For the compound `CN(C)CCNC(=O)c1cc(=O)c2ccccc2[nH]1.Cl` [2-(2-N,N-dimethylaminoethylamino-1-carbonyl)-1H-quinolin-4-one hydrochloride], in data set [1] (N171-82Q transgenic mice, intraperitoneal, chronic, 100 mg/kg, n=10, control transgenic 111.3±6.6 days), the average survival time is 145.5 ± 12.0 days. In data set [1] (N171-82Q transgenic mice, FIG. 1), the “survival compared to the control groups (Kaplan-Meier)” value is on record as “significantly increased”. Besides, the “improvement of average survival time” value in data set [1] (vs control transgenic animals, intraperitoneal, chronic, 100 mg/kg) is 30.7%. In addition, the “size (volume) of the neurons in the striatum” value in data set [2] (treated transgenic animals at age of 16 weeks, interquartile range 716.2-787.4, untreated transgenic 663.4, wild type 739.0) was 744.5 μm^3. Further, in data set [2] (treated vs untreated N171-82Q transgenic animals, hydrochloride, 100 mg/kg), the “atrophy of the neurons in the striatum” value is recorded as “successfully prevented the atrophy; also recorded: prevented the development of atrophy”. Besides, the “covered distance, last 3 weeks” value in data set [3] (100 mg/kg i.p., last 3 weeks of treatment, p=0.0094) is reported as “significant improvement”. Besides, the “covered distance, second 3 weeks” value in data set [3] (100 mg/kg i.p., second 3 weeks) was “positive changes”. Further, the “covered distance, first 3 weeks” value in data set [3] (5 minutes, 2 hours after daily inoculation, 100 mg/kg i.p., first 3 weeks (from age of 7 weeks)) is “has not improved”. Besides, in data set [3] (N171-82Q transgenic mice, FIG. 2), the “covered distance in progress of time” value is “significant improvement”. In addition, in data set [4], the “body weight compared to the control transgenic animals” value is given as “significantly increased”.

Take `O=C(O)c1cc(=O)c2ccccc2[nH]1` [KYNA, kynurenic acid]: the solubility result in data set [5] is “poor”. Also, the “elimination from the brain and organism” value in data set [6] is on record as “rapidly eliminated”.
